Experimental data from patent publication US5298491A, “Derivatives of endogenous mediators, their salts, method of preparation, applications and compositions in which they are present” (priority 1990, dated 1994).

Tests used:
5-HT1A sites [1] = experiment: Labelling of guinea-pig hippocampus (autoradiography); assay type: binding; conditions: 0.03 nM
Protocol: (§1) The protocol for preparing the brain sections is common to all the studies which follow. The animals are decapitated after anaesthesia with chloral hydrate (400 mg/kg of gross weight). The brains are quickly removed from the skull and frozen by immersion in isopentane cooled by liquid nitrogen. 20 μm sections, prepared in a cryostat at -20° C., are mounted on gelatin-coated slides and stored at -20° C.
(§2) The sections are preincubated for 1 hour at 4° C. in a Krebs solution (NaCl 118 mM; KCl 4.8 mm; CaCl2 1.2 mM; MgCl2 1.2 mM; Tris-HCl 15 mM, pH 7.4) in order to remove the endogenous ligands.
(§3) The incubations take place for 60 minutes at 20° C. in a Krebs solution containing 10 μM pargyline, 5.7.10^-4 M ascorbic acid, 10 g/l of bovine serum albumin (fraction V, Sigma) and 0.03 nmol/l of the derivative S--CM-[^125 I]--R. The non-specific binding is determined on homothetic sections under the same conditions, but in the presence of 10^-5 M 5-HT.
(§4) After incubation, the sections are rinsed twice for 1 min in distilled water and dried by a stream of hot air. The sections are affixed to a kilm (Amersham) for one week in the presence of standards ([^125 I] microscale, Amersham). The films are developed for 6 min with Kodak D19, rinsed and fixed with AL4 (Kodak). Quantitative analysis of the autoradiographs is performed with an image analysis system (Segu et al., op. cit.). […]

5-HT1A sites [2] = experiment: Labelling of Ammon's horn in postmortem human brain sections (autoradiography); assay type: binding; conditions: treated as monkey sections
Protocol: (§5) The sections are preincubated for 1 h at 4° C. in a Krebs solution (mM: NaCl, 118; KCl, 4.5; CaCl2, 1.2; MgCl2, […]; Tris, 15; pH 7.4) in order to remove the endogenous ligands. They are then incubated at 20° C. for 60 minutes in a solution containing 10^-5 M pargyline, 57 mM ascorbic acid, 10 g/l of bovine serum albumin and 0.02 nM S--CM-G[^125 I]TNH2, alone or in the presence of increasing concentrations of serotonin. Some of the sections are incubated under identical conditions except that the radioactive probe is replaced either with 2 nM [^3 H]5-HT, or with 2 nM [^3 H]5-HT in the presence of 100 nM 8-hydroxy-2-[di-N-propylamino]tetralin (8-OH-DPAT) and 100 nM mesulergin, or with 1 nM [^3 H]8-OH-DPAT. After rinsing 2 x for 1 minute in distilled water, the sections are dried.
(§6) The slides are affixed to a tritium-sensitive film for 8 days. The film is developed for 6 minutes in D19, rinsed and fixed. The autoradiographs are quantified with a video system for image analysis (Segu et al., 1990).
(§7) a) Postmortem human brains are stored at -20° C. 10 μm sections are prepared from blocks containing either the locus niger or the Ammon's horn. The sections are treated as indicated in 4. for the monkey brain sections.
(§8) The locus niger contains virtually exclusively binding sites of the 5-HT1D type, whereas the Ammon's horn is composed predominantly of sites of the 5-HT1A type.

5-HT1D receptors = experiment: Labelling of locus niger in postmortem human brain sections (autoradiography); assay type: binding
Protocol: as §5, §6, §7, §8

5-HT1D sites [3] = experiment: Labelling of 5-HT1D structures of guinea-pig brain sections (autoradiography); assay type: binding
Protocol: as §1, §2, §3
(§9) After incubation, the sections are rinsed twice for 1 min in distilled water and dried by a stream of hot air. The sections are affixed to a kilm (Amersham) for one week in the presence of standards ([^125 I] microscale, Amersham). The films are developed for 6 min with Kodak D19, rinsed and fixed with AL4 (Kodak). Quantitative analysis of the autoradiographs is performed with an image analysis system (Segu et al., op. cit.).
In the central nervous system of the guinea-pig, the anatomical structures containing sites of the 5-HT1A type and the pharmacology of these sites are the same as in the rat. By contrast, the pharmacology of the sites contained in the substantia nigra of the guinea-pig is different from that of the sites of the same structure in the rat (Heuring and Peroutka, J. Neurosci., 7, 1987, p. 894-903). These sites are therefore denotedas 5-HT1D.

5-HT1D sites [4] = target: T1, 5-HT1D sites (Macaca mulatta, UniProt F6SFA9); experiment: Labelling of substantia nigra in monkey brain sections (autoradiography); assay type: binding, monkey (Macacca mulatta n.); conditions: for binding to / marker for 5-HT1D sites: conclusion
T1 construct: The right hemisphere is cut out and frozen by isopentane cooled in liquid nitrogen; from tissue; host or cells: rhesus monkey brain sections (right hemisphere, 10 μm, frozen), substantia nigra
Protocol: A male monkey (Macacca mulatta n.) weighing 8 kg was sacrificed by means of an overdose of barbiturates and exsanguination. […] The right hemisphere is cut out and frozen by isopentane cooled in liquid nitrogen. The block is stored at -20° C. […] They are stored at -20° C. until required.
Some of the sections are incubated under identical conditions except that the radioactive probe is replaced either with 2 nM [^3 H]5-HT, or with 2 nM [^3 H]5-HT in the presence of 100 nM 8-hydroxy-2-[di-N-propylamino]tetralin (8-OH-DPAT) and 100 nM mesulergin, or with 1 nM [^3 H]8-OH-DPAT. After rinsing 2 x for 1 minute in distilled water, the sections are dried.
The slides are affixed to a tritium-sensitive film for 8 days. The film is developed for 6 minutes in D19, rinsed and fixed.

[5] = test system: other receptors which are not of the 5-HT type (such as β-adrenergic receptors); experiment: Binding to receptors not of the 5-HT type
rat central receptors = experiment: Labelling of rat brain sections with iodinated derivatives (autoradiography); conditions: 0.03 nM iodinated derivative; non-specific binding with 10^-5 M 5-HT
Protocol: as §1

[6] = Distribution of labelling in vivo with a gamma camera after intravenous injection; conditions: mice
Protocol: 2. Study of the distribution of the binding of the derivative S--CM-G[125]TNH2 by visualization in vivo with a gamma camera
The animals (mice) are anaesthetized and injected intravenously with the derivative S--CM-G[^125 I]TNH2. […] In this latter zone, the labelling is retained for 15 to 20 minutes before slowly disappearing.

[7] = Passage across the blood-brain barrier after intracardiac injection (brain autoradiography); assay type: in vivo, mice and guinea-pigs; conditions: 10 minutes; for passage across the blood-brain barrier: intracardiac injection, conclusion
Protocol: (§10) 2 mice and 2 guinea-pigs are deeply anaesthetized with chloral hydrate (intraperitoneal injection of 0.12 ml of a 35% solution per 100 g of body weight).
(§11) The mice and guinea-pigs receive intracardiac injections of 200 μl and 1.5 ml, respectively, of S--CM-G[^125 I]TNH2.
(§12) After 10 minutes, the animals, still under deep anaesthesia, are decapitated and the brains are frozen and stored as indicated in Example 1.
Sections are prepared and autoradiography is carried out as described in Example 1.

[8] = Toxicity observed at the injected dose; assay type: in vivo, mice and guinea-pigs
Protocol: as §10, §11, §12

5-HT1A sites [9] = experiment: Labelling of rat hippocampus (autoradiography); assay type: binding; conditions: 0.03 nM
Protocol: as §1, §2, §3, §4

5-HT1B sites = 5-HT1B sites (Rattus norvegicus, UniProt P28564); experiment: Labelling of 5-HT1B structures of rat brain sections (autoradiography); assay type: binding
Protocol: as §1, §2, §3, §9
This last structure is known for containing almost exclusively binding sites of the 5-HT1A type, whereas the others contain sites of the 5-HT1B type (Hoyer et al., Eur. J. Pharmacol., 118, 1985, P. 1-12). In the anterior region, the striatum (ST) is labelled: it contains especially 5-HT1B sites; the choroid plexus (Px), which contains 5-HT1c sites, is not labelled.

5-HT1C sites [10] = experiment: Labelling of guinea-pig choroid plexus (autoradiography); assay type: binding; conditions: 0.03 nM
Protocol: as §1, §2, §3, §9

5-HT1C sites [11] = experiment: Labelling of rat choroid plexus (autoradiography); assay type: binding; conditions: 0.03 nM
Protocol: as §1, §2, §3, §4

serotonin receptors = experiment: Affinity and selectivity for serotonin receptor sites; assay type: binding

T1 sequence (F6SFA9 1-390): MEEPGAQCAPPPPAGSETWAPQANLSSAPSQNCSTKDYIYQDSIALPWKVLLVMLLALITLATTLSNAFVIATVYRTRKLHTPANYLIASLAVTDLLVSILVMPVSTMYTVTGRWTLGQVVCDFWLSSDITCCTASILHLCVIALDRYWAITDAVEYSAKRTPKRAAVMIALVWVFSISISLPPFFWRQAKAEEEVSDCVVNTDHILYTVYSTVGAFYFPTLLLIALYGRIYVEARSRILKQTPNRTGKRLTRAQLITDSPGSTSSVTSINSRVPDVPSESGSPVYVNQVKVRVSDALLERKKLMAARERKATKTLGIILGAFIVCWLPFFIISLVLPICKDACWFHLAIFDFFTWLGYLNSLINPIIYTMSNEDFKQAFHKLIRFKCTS
Chain of 5-HT1B sites (P28564 whole entry): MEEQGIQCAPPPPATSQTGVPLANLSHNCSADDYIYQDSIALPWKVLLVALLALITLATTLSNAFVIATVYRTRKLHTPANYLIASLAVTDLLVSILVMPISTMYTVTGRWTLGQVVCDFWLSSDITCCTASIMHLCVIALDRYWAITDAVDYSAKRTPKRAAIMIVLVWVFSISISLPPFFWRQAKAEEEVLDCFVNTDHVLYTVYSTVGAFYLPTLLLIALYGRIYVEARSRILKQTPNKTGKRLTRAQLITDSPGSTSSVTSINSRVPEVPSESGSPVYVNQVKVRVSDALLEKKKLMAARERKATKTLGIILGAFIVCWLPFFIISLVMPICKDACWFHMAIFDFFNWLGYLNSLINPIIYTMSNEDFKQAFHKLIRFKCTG

For `NCCc1c[nH]c2ccc(OCC(=O)NCC(=O)N[C@@H](Cc3ccc(O)c([125I])c3)C(N)=O)cc12` [S--CM-G[^125 I]TNH2], which “labelling of the hippocampus” value (5-HT1A sites [1]; listed as S--CM-G[^125I]TNH2) is on record?
The value was “not the hippocampus”.

What about the “labelling of the hippocampus” value (5-HT1A sites [1]; listed as S-CM-G[^125 I]TNH2) of the same compound?
Its value is “not labelled”.

What about the “labelling of the Ammon's horn” value (5-HT1A sites [2]) of the same compound?
Its value is “weak labelling”.

What about the “labelling of 5-HT1D receptors of the human brain in vitro” value (5-HT1D receptors; conclusion) of the same compound?
Its value is “labels the 5-HT1D receptors of the human brain in vitro”.

What about the “labelling of the locus niger” value (5-HT1D receptors; postmortem, treated as monkey sections) of the same compound?
The value was “strong labelling”.

What about the “labelling of the substantia nigra” value (5-HT1D sites [3]; 0.03 nM) of the same compound?
Its value is “labels the substantia nigra”.

What about the “labelling of St, SD and SN” value (5-HT1D sites [3]; FIG. 6, 0.03 nM) of the same compound?
Its value is “labelled”.

And the “marker for 5-HT1D sites” value (5-HT1D sites [3]; conclusion)?
The value was “marker for sites with a high affinity for serotonin of the 1D type”.

What about the “labelling of the substantia nigra” value (5-HT1D sites [4]; 0.02 nM S-CM-G[125I]TNH2) of the same compound?
Its value is “virtually exclusive labelling of the substantia nigra”.

What about the “labelling of the substantia nigra” value (5-HT1D sites [4]; 0.02 nM S-CM-G[125I]TNH2, listed as [^125 I]S-CM-GTNH2) of the same compound?
The value was “exclusive labelling of the substantia nigra”.

What about the “binding to / marker for 5-HT1D sites” value (5-HT1D sites [4]) of the same compound?
The value was “marker for 5-HT1D receptors”.

And the “binding to / marker for 5-HT1D sites” value (5-HT1D sites [4]; listed as S--CM-G[^125 I9 TNH2)?
The value was “specific for the 5-HT1D sites”.

And the “binding to / marker for 5-HT1D sites” value (5-HT1D sites [4]; listed as S--CM-G[^125 I ]TNH2)?
Its value is “binds to the 5-HT1D sites”.

And the “selectivity vs receptors not of the 5-HT type” value [5]?
Its value is “high selectivity without binding to other receptors which are not of the 5-HT type”.

And the “labelling / specific retention on rat brain sections” value (rat central receptors)?
The value was “retained specifically on rat brain sections”.

And the “labelling of the vascular system 10 minutes after the injection” value ([6]; 10 minutes)?
Its value is “the labelling decreases in the vascular system, except for the heart and the cerebral vascular system”.

And the “initial distribution of labelling” value ([6]; gamma camera)?
The value was “very quickly observed to diffuse into the heart, the entire vascular system and the liver”.

And the “labelling of the bladder” value ([6]; longer term)?
Its value is “increases in the longer term”.

And the “labelling of the heart” value ([6]; longer term)?
Its value is “remaining labelled for a fairly long time”.

What about the “labelling of brain sections after in vivo injection” value ([7]; intracardiac injection (mice 200 μl, guinea-pigs 1.5 ml)) of the same compound?
Its value is “no labelling”.

And the “passage across the blood-brain barrier” value [7]?
Its value is “does not cross the blood-brain barrier”.

What about the “passage across the blood-brain barrier” value ([7]; listed as S--CM-G[125]TNH2) of the same compound?
The value was “does not pass through the blood-brain barrier”.

And the toxicity [8]?
The toxicity was “No toxicity was observed”.

What about the “labelling of the hippocampus” value (5-HT1A sites [9]) of the same compound?
The value was “no labelling”.

And the “labelling of the hippocampus” value (5-HT1A sites [9]; listed as S-CM-G[^125 I]TNH2)?
Its value is “not labelled”.

What about the “labelling of St, SD and SN” value (5-HT1B sites; FIG. 5, 0.03 nM) of the same compound?
Its value is “labelled”.

And the “labelling of the striatum” value (5-HT1B sites; anterior region, 0.03 nM)?
The value was “labelled”.

And the “marker specificity for 5-HT1B sites” value (5-HT1B sites; conclusion)?
The value was “specific marker for binding sites with a high affinity for serotonin of the 1B type”.

What about the “labelling of the substantia nigra and the dorsal subiculum” value (5-HT1B sites; mesencephalic region, 0.03 nM) of the same compound?
The value was “intense labelling”.

What about the “labelling of the choroid plexus” value (5-HT1C sites [10]) of the same compound?
The value was “not labelled”.

And the “labelling of the choroid plexus” value (5-HT1C sites [11])?
Its value is “not labelled”.

And the “preferential affinity among 5-HT1 sites” value (serotonin receptors; 5-HT1B and 5-HT1D vs 5-HT1A and 5-HT1C)?
The value was “preferential affinity for the 5-HT1B and 5-HT1D sites compared with the 5-HT1A and 5-HT1C sites”.

And the “ligand labelling of the 5-HT1D sites” value (serotonin receptors; compared with other ligands)?
The value was “only ligand to label the 5-HT1D sites”.
